Our source for the IC50 values is US20100222340A1, “SUBSTITUTED PYRIDO [1,2-a] ISOQUINOLINE DERIVATIVES” (priority 2004, published 2010).

Molecules are shown by their SMILES. Structures can show the parent of a compound that is named as a salt.

For this assay, the target named is T1, human DPP-IV (Homo sapiens, UniProt P27487).
T1 construct: made in house; host or cells: Pichia pastoris
T1 sequence (P27487 31-766): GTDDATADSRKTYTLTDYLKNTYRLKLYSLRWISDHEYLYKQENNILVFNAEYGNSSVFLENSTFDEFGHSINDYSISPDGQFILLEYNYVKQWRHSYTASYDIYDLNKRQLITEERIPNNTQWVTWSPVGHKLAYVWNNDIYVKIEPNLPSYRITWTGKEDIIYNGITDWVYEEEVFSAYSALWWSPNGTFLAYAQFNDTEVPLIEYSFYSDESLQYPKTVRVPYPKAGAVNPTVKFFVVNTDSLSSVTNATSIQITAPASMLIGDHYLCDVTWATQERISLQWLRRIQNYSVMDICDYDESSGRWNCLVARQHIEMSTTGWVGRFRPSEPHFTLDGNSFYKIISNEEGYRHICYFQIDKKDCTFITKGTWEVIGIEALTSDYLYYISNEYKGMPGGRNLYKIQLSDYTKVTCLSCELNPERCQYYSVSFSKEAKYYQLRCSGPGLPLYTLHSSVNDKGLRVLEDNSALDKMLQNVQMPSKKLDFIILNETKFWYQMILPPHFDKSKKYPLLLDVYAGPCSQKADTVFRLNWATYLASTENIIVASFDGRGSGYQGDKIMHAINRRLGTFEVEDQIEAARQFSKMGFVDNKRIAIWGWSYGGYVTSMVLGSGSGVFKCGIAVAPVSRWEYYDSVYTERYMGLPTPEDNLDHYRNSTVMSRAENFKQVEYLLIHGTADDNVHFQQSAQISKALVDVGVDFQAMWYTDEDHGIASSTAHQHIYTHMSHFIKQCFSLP
As to the kind of experiment: DPP-IV activity assay (fluorogenic / colorimetric), IC50 determination. The assay is classed as biochemical. To be noted: natural human DPP-IV from human plasma pool or recombinant human DPP-IV; 37° C., pH 7.8. The procedure:
Activity of DPP-IV inhibitors are tested with natural human DPP-IV derived from a human plasma pool or with recombinant human DPP-IV. Human citrate plasma from different donors is pooled, filtered through a 0.2 micron membrane under sterile conditions and aliquots of 1 ml are shock frozen and stored at −120° C. until used. In the colorimetric DPP-IV assay 5 to 10 μl human plasma and in the fluorometric assay 1.0 μl of human plasma in a total assay volume of 100 μl is used as an enzyme source. The cDNA of the human DPP-IV sequence of amino acid 31- to 766, restricted for the N-terminus and the transmembrane domain, is cloned into Pichia pastoris. Human DPP-IV is expressed and purified from the culture medium using conventional column chromatography including size exclusion and anion and cation chromatography. The purity of the final enzyme preparation of Coomassie blue SDS-PAGE is >95%. In the colorimetric DPP-IV assay 20 ng rec.-h DPP-IV and in the fluorometric assay 2 ng rec-h DPP-IV in a total assay volume of 100 μl is used as an enzyme source.
In the fluorogenic assay Ala-Pro-7-amido-4-trifluoromethylcoumarin (Calbiochem No 125510) is used as a substrate. A 20 mM stock solution in 10% DMF/H2O is stored at −20° C. until use. […]
Fluorescence is detected in a Perkin Elmer Luminescence Spectrometer LS 50B at an excitation wavelength of 400 nm and an emission wavelength of 505 nm continuously every 15 seconds for 10 to 30 minutes. Initial rate constants are calculated by best fit linear regression. The absorption of pNA liberated from the colorimetric substrate is detected in a Packard SpectraCount at 405 nm continuously every 2 minutes for 30 to 120 minutes. Initial rate constants are calculated by best fit linear regression. […]
IC50 determinations of test compounds are calculated by non-linear best fit regression of the DPP-IV inhibition of at least 5 different compound concentrations. Kinetic parameters of the enzyme reaction are calculated at least 5 different substrate concentrations and at least 5 different test compound concentrations.
For the molecule `COc1cc2c(cc1OCC(N)=O)CCN1C[C@H](c3cc(C)ccc3C)[C@@H](N)C[C@@H]21` (racemic) [Example 8, (2S,3S,11bS)- and (2R,3R,11bR)-2-[2-Amino-3-(2,5-dimethyl-phenyl)-10-methoxy-1,3,4,6,7,11b-hexahydro-2H-pyrido[2,1-a]isoquinolin-9-yloxy]-acetamide, hydrochloride], the half-maximal inhibitory concentration (IC50) (in general, the midpoint of a concentration-inhibition curve) stood at 0.1 nM.

For `COc1cc2c(cc1OCC(=O)Nc1nn[nH]n1)CCN1C[C@H](c3cc(C)ccn3)[C@@H](N)C[C@@H]21` (racemic) [Example 13, (2S,3S,11bS)- and (2R,3R,11bR)-2-[2-Amino-10-methoxy-3-(4-methyl-pyridin-2-yl)-1,3,4,6,7,11b-hexahydro-2H-pyrido[2,1-a]isoquinolin-9-yloxy]-N-(2H-tetrazol-5-yl)-acetamide hydrochloride], the concentration for half-maximal inhibition (IC50) was found to be 1.1 nM. In the case of `COc1ccc2c(c1OCC(=O)N(C)C)CCN1C[C@H](c3cccc(C)c3)[C@@H](N)C[C@@H]21` (racemic) [Example 48, rac-2-((2S,3S,11bS)-2-Amino-9-methoxy-3-m-tolyl-1,3,4,6,7,11b-hexahydro-2H-pyrido[2,1-a]isoquinolin-8-yloxy)-N,N-dimethyl-acetamide] it was 0.3 nM.
